# Test results published in patent US20130274196A1, “METHOD FOR TREATMENT OF INFLAMMATORY DISEASE AND DISORDER” (HEALOR LTD., priority 2010, published 2013).
# “Also recorded” adds a separate entry of the source. The star is where a group is joined. Myristoyl = CCCCCCCCCCCCCC(=O)*
# Columns and labels:
# keratinocytes [1] = assay: Cytokine secretion in stimulated keratinocytes treated with PKCδ activator (ELISA); format: cell-based, BALB/C mice; conditions: stimulated by LPS or TNFα, 48 hr
# Protocol: (§1) PKCδ activators were also shown to have an anti-inflammatory effect on keratinocytes and splenocytes. Keratinocytes were derived from newborn BALB/C mice skin. The cells were incubated for 5 days in 24 wells plate. Cells were then incubated with PBS −/− as control or stimulated by LPS or TNFα. The PKCδ […] DAP-1 (SEQ ID NO: 34) was added. Medium containing secreted cytokines was collected after 48 hr and analyzed using ELISA. FIG. 43 is a tabular summary showing cytokine secretion in splenocytes stimulated with LPS. FIG. 44 is a tabular summary of cytokine secretion in keratinocytes stimulated by TNFα.
# splenocytes = assay: Cytokine secretion in LPS stimulated splenocytes treated with PKCδ activator; format: cell-based
# Protocol: as §1
# macrophages = assay: Macrophage infiltration in skin wound (Iba-1 staining); format: in vivo, C57BL/6J mouse; conditions: daily treatment, five days post-wounding
# Protocol: The effect of MPDY-1 on macrophage infiltration was also shown by Iba-1 staining. Iba-1 is a general marker for macrophages. […] As above, a two-cm longitudinal incision was done on the upper back of a C57BL/6J mouse. Following wounding, a sterile pad was sutured to the mouse's skin. Animals were treated daily with MPDY-1 (n=6). Five days post-wounding, when inflammatory phase reaches its peak, the mice were sacrificed, skin tissues were embedded in paraffin and immunohistochemical staining was performed utilizing anti-Iba-1 antibodies.
# activated macrophages = assay: Macrophage activation in skin wound (MAC-2 staining); format: in vivo, C57BL/6J mouse; conditions: daily treatment, 5 days; p(control vs 10 μg)=0.0028
# Protocol: The effect of MPDY-1 on macrophage activation was also shown by MAC-2 staining. MAC-2 is a specific marker for activated macrophages. […] A two-cm longitudinal incision was done as described above. Animals were treated daily with DPBS^−/− (Control) or MPDY-1 in the specified concentrations (n=6). After 5 days immunohistochemical staining was performed utilizing anti-MAC-2 antibodies. Bar […]. (*p(control Vs. MPDY-1 10 μg)=0.0028).
# IKK = assay: TNFα induced IKK activation in keratinocytes (phospho-IKKa/b Western blot); format: cell-based, Murine; conditions: 1 hour pretreatment, TNFα 35 ng/ml 15 minutes
# Protocol: Murine primary keratinocytes were grown for 4 days to full confluence in Low Ca^+2 MEM. Cells were pretreated with designated concentration of MPDY-1 as described in the figure for 1 hour, prior to TNFα induction. Following MPDY-1 pretreatment, cells were incubated with TNFα 35 ng/ml for 15 minutes. Reaction was stopped by adding ice-cold dPBS−/− and keratinocytes were homogenized in RIPA buffer. Samples were subjected to SDS PAGE Western Blot analysis, utilizing phospho-IKKa/b (Ser176/180 antibody).
# keratinocytes [2] = assay: Cytokine secretion in LPS, TNFα or IL-17 activated keratinocytes treated with peptide PKCα inhibitors (ELISA); format: cell-based, BALB/C mice
# Protocol: To determine their effects, keratinocytes were derived from newborn BALB/C mice skin. The cells were incubated for 5 days in 24 wells plate. Cells were then incubated with PBS −/− as control or stimulated by LPS, TNFα, or IL-17. PKCα inhibitors were added as indicated. Medium containing secreted cytokines was collected after 48 hr and analyzed using ELISA. FIG. 50 is a tabular summary of cytokine secretion.
# EAE mice = assay: Experimental allergic encephalomyelitis (EAE), MOG35-55/CFA immunized mice; format: in vivo, C57BL/6J mice; conditions: for Score on day 18 / Score on day 29 / Score on day 37: EAE scale 0-6; for EAE score on the initial day: scale 0-6
# [3] = tested on: histamine induced pruritus; assay: Histamine prick test model of pruritus; format: in vivo, healthy volunteers; conditions: for Pruritus score: scale 0-4, individual subject
# Protocol: Forearms of individual subjects were injected with histamine solution and placebo. The formulation of Example 4 was topically applied with MPDY-1 at various concentrations and pruritus was assessed over a time course as shown in FIGS. 39-42.
# This test was performed by placing a drop of a solution containing a possible allergen on the skin, and a series of scratches or needle pricks allow the solution to enter the skin. The extract enters into the outer layer of the skin (epidermis) using a fine needle (such as a. 26G disposable needle). This testing is not painful, and generally there is no bleeding involved since the needle only scratches the surface of the skin. If the skin develops a red, raised itchy area (called a wheal), it is as a result of allergic reaction to that allergen. This is called a positive reaction. A drop of extract is introduced through a fine needle (such as a No. 26 disposable needle). The test causes no discomfort and minimal trauma so that controls and negative test show only the site of the prick; if anything.
# 26G needles were utilized to introduce histamine stock (Histatrol Positive Control Histamine, 1 mg/ml, code #HIST14999V, Trupharm). The test was conducted on healthy volunteers in a double-blind, randomized test. The formulations were applied on the forearms. Three treatment areas were chosen and marked (the surface of the forearm from the elbow to the wrist was divided transversely into proximal, middle and distal thirds); the areas were pricked prior the below treatments.
# An area was treated with the active formulation in a double-blind manner, for 10 minutes—marked as A.
# An area was treated with the Placebo in a double-blind manner, for 10 minutes—marked as C.
# A color photograph was taken at time zero (T0), after 10, 20, 30 minutes.
# Pruritus questionnaire was answered by the subjects 5 and 15 minutes after treatment.
# Subjects were provided with pruritus sensation forms and asked to indicate the level of pruritus sensed from 0 (no response) to 4 (uncontrollable pruritus) at different time intervals.
# C57BL mice = assay: Incision wounds treated 7 days, severe inflammation incidence (Example 10); format: in vivo; conditions: 1 μM daily for 7 days
# Protocol: Wounds were performed on the back of C57BL mice by incision and were treated daily for 7 days with: (i) PBS, control; (ii) 1 μM of the PKCα inhibitor of SEQ ID NO: 6; (iii) 1 μM insulin (Humulin, Eli Lilly, USA); or (iv) a mixture of 1 μM PKCα inhibitor and 1 μM insulin.
# [4] = tested on: STZ-induced diabetic C57BL/6J mice; assay: Wound healing in STZ-induced diabetic mice; format: in vivo
# Protocol: Full thickness skin incisions (20 mm) were performed on the upper back of anesthetized streptozocin (STZ)-injected (175 mg/kg body weight) diabetic, citrate buffer injected (6 mice/group) non-diabetic, and non-injected (6 mice/group), C57BL/6J mice. Periodical blood glucose monitoring was performed by measuring glucose levels from tail vein after STZ injection. […] Following incision, STZ-induced diabetic wounds were treated daily by application of PBS (7/6 mice/group), insulin (0.1 units/ml) (6 mice/group), the PKCa inhibitor of SEQ ID NO:6 (1 μg/ml) (7/5 mice/group) or a formulation (herein designated HO/03/03) containing insulin and the N-myristoylated PKCα inhibitor of SEQ ID NO: 6 (7/6 mice/group) directly to the surgical dressing. Biopsies were collected 9 days post-wounding. Wounds were excised from euthanized animals for evaluation of wound-healing parameters by histology and immunohistochemistry.
# Wounds were assessed for epidermal closure by Keratin 14 staining. Wounds were considered closed when complete epidermal staining was observed across the wound gap. Dermal contraction was considered when both dermal edges were visible in a fixed field ×100 magnification utilizing H&E staining. Epidermal differentiation was assessed by Keratin 1 staining.
# The organization of hypodermis was assessed by the presence (or absence) of hypodermis at both wound edges. Granulation tissue formation was assessed by the presence of fibroblasts and collagen fibers in the wound bed. The wound was considered positive for granulation tissue formation when a continuous layer of granulation tissue was present in the wound gap. In addition, we have defined 3 specific histological parameters characterizing severe inflammation of diabetic wounds: (i) abscess formation at the wounded area, (ii) excessive leukocytosis (>100 cells in a fixed field (×200)) and (iii) high white blood cells (WBC)/red blood cells (RBC) ratio within the blood vessels shown in a fixed field (×200). When at least 2 of these parameters are present at the wound gap, the wound is considered severely inflamed.
# [5] = 9-days post wounding, percent of wounds in group, insulin 0.1 units, HO/02 1 ug/ml
# [6] = 9-days post wounding, percent of wounds in group, insulin 0.1 units, SEQ ID NO: 6 1 ug/ml
substance,measurement,setting,value
H-His-Phe-Glu-Asp-Trp-Ile-Asp-His-Phe-Glu-Asp-Trp-Ile-Asp-OH (H-HFEDWIDHFEDWID-OH) [DAP-1],inflammatory cytokine secretion in keratinocytes,keratinocytes [1],significantly decease inflammatory cytokine secretion
same,inflammatory cytokine secretion in splenocytes,splenocytes,significantly decease inflammatory cytokine secretion
Myristoyl-Phe-Ala-Arg-Lys-Gly-Ala-Leu-Arg-Gln-OH (Myristoyl-FARKGALRQ-OH; SMILES CCCCCCCCCCCCCC(=O)N[C@@H](Cc1ccccc1)C(=O)N[C@@H](C)C(=O)N[C@@H](CCCNC(=N)N)C(=O)N[C@@H](CCCCN)C(=O)NCC(=O)N[C@@H](C)C(=O)N[C@@H](CC(C)C)C(=O)N[C@@H](CCCNC(=N)N)C(=O)N[C@@H](CCC(N)=O)C(=O)O) [MPDY-1],macrophage infiltration (Iba-1 positive cells per field),macrophages,dose dependent effect
same,activation of macrophages (MAC-2 positive cells per field),activated macrophages,significantly inhibited
same,TNFα induced IKK activation in keratinocytes,IKK,significantly reduced TNFα induced IKK activation
same,concentration exhibiting the strongest inhibition of IKK activation (lowest concentration),IKK,0.1 mg/mL
same,cytokine secretion from IL-17A activated keratinocytes,keratinocytes [2]; IL-17A activated,decrease cytokine secretion
same,cytokine secretion from LPS and TNFα activated keratinocytes,keratinocytes [2]; LPS and TNFα activated,decrease cytokine secretion
same,cytokine secretion in keratinocytes,"keratinocytes [2]; stimulated by LPS, TNFα, or IL-17, medium collected after 48 hr",effective in decreasing cytokine secretion
same,The initial day (of illness signs),EAE mice; 0.1 mg/kg,13 days
same,EAE severity / score compared to control group,EAE mice; 0.1 mg/kg (0.1 μg/ml),lower score during most of the experiment days; also recorded: reduced EAE severity
same,delay of development of EAE clinical conditions compared to control group,EAE mice; 0.1 mg/kg (0.1 μg/ml),two days later than the control group; also recorded: two days delay
same,Score on day 18,EAE mice; 0.1 mg/kg,2.571
same,Score on day 29,EAE mice; 0.1 mg/kg,2.000
same,Score on day 37,EAE mice; 0.1 mg/kg,1.500
same,EAE score on the initial day,EAE mice; 0.1 mg/kg,1.000
same,The initial day (of illness signs),EAE mice; 1 mg/kg,11 days
same,Number of dead mice during 49 days,"EAE mice; 1 mg/kg i.p. three times a week, n=7",2
same,Score on day 18,EAE mice; 1 mg/kg,3.143
same,Score on day 29,EAE mice; 1 mg/kg,3.286
same,Score on day 37,EAE mice; 1 mg/kg,3.071
same,EAE score on the initial day,EAE mice; 1 mg/kg,0.214
same,average group score at the end of the experiment (day 42),"EAE mice; concentration of 0.1 μg/ml, control group score 2.86",1.93
same,Pruritus score,"[3]; 5 minutes after histamine, MPDY-1 1 μg/ml (A1)",3
same,Pruritus score,"[3]; 5 minutes after histamine, MPDY-1 10 μg/ml (A2)",2
same,Pruritus score,"[3]; 15 minutes after histamine, MPDY-1 1 μg/ml (A1)",1
same,Pruritus score,"[3]; 15 minutes after histamine, MPDY-1 10 μg/ml (A2)",0
same,"redness, inflammation and pruritus compared with control over the time course",[3]; topical application,"significantly attenuated redness, inflammation and pruritus"
same,"decrease of severe wound inflammation incidence, as compared to control",C57BL mice,33.3%
same,Incidence of severe inflammation in wound (%),C57BL mice; PBS control 60,40%
same,Dermal closure (H&E),[4]; [5],17%
same,Epidermal closure (K14),[4]; [5],17%
same,Epidermal differentiation (Kl),[4]; [5],17%
same,Granulation tissue,[4]; [6],50%
same,Hypodermis,[4]; [6],10%
same,Severe inflammation,[4]; [6],30%
same,overall healing effect in diabetic wounds,[4]; 9 days post-wounding,only partial healing effects
